“And” between values parts separate entries of the source, which are not always exact repeats. Identical values can stand only once. Counter-ions that a name gives are not always drawn. One block for each compound: values may come before it.
Experiments:
[1] = tested on: albino rabbits; experiment: Compatibility study, topical application to the rabbit eye over 28 days (EU Directive 92/69/EEC, method B.5); assay type: in vivo; details: 50 μl aqueous solution pH 3.0-3.5, right eye, twelve albino rabbits
[2] = Absorption of 14C-marked moxaverine into eye tissues and plasma after ocular or systemic application; details: for Amount of active substance in the moist tissue: single experiments
[3] = ocular application, after 30 minutes, Aqueous humor
[4] = ocular application, after 30 minutes, Lens
[5] = ocular application, after 30 minutes, Plasma
[6] = ocular application, after 120 minutes, Retina
[7] = systemic application (intravenous), after 30 minutes, Aqueous humor
[8] = systemic application (intravenous), after 30 minutes, Iris/ciliary process
[9] = systemic application (intravenous), after 30 minutes, Lens
[10] = systemic application (intravenous), after 30 minutes, Plasma
[11] = systemic application (intravenous), after 30 minutes, Retina
[12] = systemic application (intravenous), after 30 minutes, Vitreous humor
[13] = systemic application (intravenous), after 120 minutes, Aqueous humor
[14] = systemic application (intravenous), after 120 minutes, Conjunctiva
[15] = systemic application (intravenous), after 120 minutes, Iris/ciliary process
[16] = systemic application (intravenous), after 120 minutes, Lens
[17] = systemic application (intravenous), after 120 minutes, Plasma
[18] = systemic application (intravenous), after 120 minutes, Retina
[19] = systemic application (intravenous), after 120 minutes, Sclera
[20] = systemic application (intravenous), after 120 minutes, Vitreous humor

SMILES: CCc1cc2cc(OC)c(OC)cc2c(Cc2ccccc2)n1 [moxaverine hydrochloride]
Eye reaction: changes to the iris, clouding of the cornea [1]: No changes to the iris or clouding of the cornea were observed
Eye reaction: swelling of the lids, reddening of the conjunctiva [1]: No rabbit exhibited swelling of the lids or any reddening of the conjunctiva

Factor by which concentration in the iris and the ciliary process is less with systemic than with topical application ([2]; 30 minutes): ~6
Factor by which concentration in the iris and the ciliary process is less with systemic than with topical application ([2]; 120 minutes): ~18
Concentration in the retina, systemic compared to topical administration ([2]; after 30 minutes): slightly above
Concentration in the conjunctiva and the cornea after 120 minutes compared to 30 minutes ([2]; ocular application): decreased
Concentration in the iris and the ciliary process after 120 minutes compared to 30 minutes ([2]; ocular application): almost doubled
Increase of concentration in the retina after 120 minutes compared to 30 minutes ([2]; ocular application): about 50%
Concentration in the iris and the ciliary process at 120 minutes as share of the concentration after 30 minutes ([2]; systemic application): about 63%
Factor of decrease of concentration in the retina from 30 to 120 minutes ([2]; systemic application): 1.6
Absorption by the eye after topical application to the surface ([2]; topical application): very well absorbed by the eye
Factor of increase of concentration in the iris and the ciliary process from 30 minutes to 120 minutes ([2]; topical application): ~2
Factor of increase of concentration in the retina from 30 to 120 minutes ([2]; topical application): 1.4
SMILES: CCc1cc2cc(OC)c(OC)cc2c(Cc2ccccc2)n1 [moxaverine]
Amount of active substance in the moist tissue, Mean value [2, 3]: 1.9529E−07 mg of moxaverine/g of moist tissue
Amount of active substance in the moist tissue [2, 3]: 1.4923E−07 mg of moxaverine/g of moist tissue and 2.6321E−07 mg of moxaverine/g of moist tissue and 1.7533E−07 mg of moxaverine/g of moist tissue
Amount of active substance in the moist tissue, Mean value ([2]; ocular application, after 30 minutes, Conjunctiva): 6.1602E−04 mg of moxaverine/g of moist tissue
Amount of active substance in the moist tissue, Mean value ([2]; ocular application, after 30 minutes, Cornea): 1.8538E−03 mg of moxaverine/g of moist tissue
Amount of active substance in the moist tissue, Mean value ([2]; ocular application, after 30 minutes, Iris/ciliary process): 1.5028E−03 mg of moxaverine/g of moist tissue
Amount of active substance in the moist tissue, Mean value [2, 4]: 4.9582E−05 mg of moxaverine/g of moist tissue
Amount of active substance in the moist tissue [2, 4]: 4.6171E−05 mg of moxaverine/g of moist tissue and 6.1860E−05 mg of moxaverine/g of moist tissue and 4.0715E−05 mg of moxaverine/g of moist tissue
Amount of active substance in the moist tissue, Mean value [2, 5]: 2.0234E−05 mg of moxaverine/g of moist tissue
Amount of active substance in the moist tissue [2, 5]: 2.3741E−05 mg of moxaverine/g of moist tissue and 1.8259E−05 mg of moxaverine/g of moist tissue and 1.8702E−05 mg of moxaverine/g of moist tissue
Amount of active substance in the moist tissue, Mean value ([2]; ocular application, after 30 minutes, Retina): 1.0031E−04 mg of moxaverine/g of moist tissue
Amount of active substance in the moist tissue, Mean value ([2]; ocular application, after 30 minutes, Sclera): 1.0012E−04 mg of moxaverine/g of moist tissue
Amount of active substance in the moist tissue, Mean value ([2]; ocular application, after 30 minutes, Vitreous humor): 1.1544E−07 mg of moxaverine/g of moist tissue
Amount of active substance in the moist tissue, Mean value ([2]; ocular application, after 120 minutes, Aqueous humor): 9.3417E−08 mg of moxaverine/g of moist tissue
Amount of active substance in the moist tissue, Mean value ([2]; ocular application, after 120 minutes, Conjunctiva): 3.7275E−04 mg of moxaverine/g of moist tissue
Amount of active substance in the moist tissue, Mean value ([2]; ocular application, after 120 minutes, Cornea): 1.1057E−03 mg of moxaverine/g of moist tissue
Amount of active substance in the moist tissue, Mean value ([2]; ocular application, after 120 minutes, Iris/ciliary process): 2.9849E−03 mg of moxaverine/g of moist tissue
Amount of active substance in the moist tissue, Mean value ([2]; ocular application, after 120 minutes, Lens): 5.6780E−05 mg of moxaverine/g of moist tissue
Amount of active substance in the moist tissue, Mean value ([2]; ocular application, after 120 minutes, Plasma): 1.2891E−05 mg of moxaverine/g of moist tissue
Amount of active substance in the moist tissue, Mean value [2, 6]: 1.4397E−04 mg of moxaverine/g of moist tissue
Amount of active substance in the moist tissue [2, 6]: 1.8933E−04 mg of moxaverine/g of moist tissue and 1.4755E−04 mg of moxaverine/g of moist tissue and 9.5039E−05 mg of moxaverine/g of moist tissue
Amount of active substance in the moist tissue, Mean value ([2]; ocular application, after 120 minutes, Sclera): 1.0330E−04 mg of moxaverine/g of moist tissue
Amount of active substance in the moist tissue, Mean value ([2]; ocular application, after 120 minutes, Vitreous humor): 9.6118E−09 mg of moxaverine/g of moist tissue
Absorption and biological availability in the eye, topical compared to systemic application ([2]; same application amount): better absorbed by the eye with topical application and exhibits a markedly longer biological availability in the eye
Amount of active substance in the moist tissue, Mean value [2, 7]: 2.2632E−09 mg of moxaverine/g of moist tissue
Amount of active substance in the moist tissue [2, 7]: 2.0291E−09 mg of moxaverine/g of moist tissue and 2.4973E−09 mg of moxaverine/g of moist tissue
Amount of active substance in the moist tissue, Mean value ([2]; systemic application (intravenous), after 30 minutes, Conjunctiva): 2.4278E−05 mg of moxaverine/g of moist tissue
Amount of active substance in the moist tissue, Mean value ([2]; systemic application (intravenous), after 30 minutes, Cornea): 8.1549E−06 mg of moxaverine/g of moist tissue
Amount of active substance in the moist tissue, Mean value [2, 8]: 2.5186E−04 mg of moxaverine/g of moist tissue
Amount of active substance in the moist tissue [2, 8]: 2.2898E−04 mg of moxaverine/g of moist tissue and 2.7473E−04 mg of moxaverine/g of moist tissue
Amount of active substance in the moist tissue, Mean value [2, 9]: 1.2813E−06 mg of moxaverine/g of moist tissue
Amount of active substance in the moist tissue [2, 9]: 9.5659E−07 mg of moxaverine/g of moist tissue and 1.6061E−06 mg of moxaverine/g of moist tissue
Amount of active substance in the moist tissue, Mean value [2, 10]: 3.4421E−05 mg of moxaverine/g of moist tissue
Amount of active substance in the moist tissue [2, 10]: 2.8375E−05 mg of moxaverine/g of moist tissue and 4.9032E−05 mg of moxaverine/g of moist tissue and 2.5855E−05 mg of moxaverine/g of moist tissue
Amount of active substance in the moist tissue, Mean value [2, 11]: 1.3046E−04 mg of moxaverine/g of moist tissue
Amount of active substance in the moist tissue [2, 11]: 1.0666E−04 mg of moxaverine/g of moist tissue and 1.5425E−04 mg of moxaverine/g of moist tissue
Amount of active substance in the moist tissue, Mean value ([2]; systemic application (intravenous), after 30 minutes, Sclera): 3.3698E−05 mg of moxaverine/g of moist tissue
Amount of active substance in the moist tissue, Mean value [2, 12]: 2.0811E−09 mg of moxaverine/g of moist tissue
Amount of active substance in the moist tissue [2, 12]: 2.6534E−09 mg of moxaverine/g of moist tissue and 1.5088E−09 mg of moxaverine/g of moist tissue
Amount of active substance in the moist tissue, Mean value [2, 13]: 1.9944E−09 mg of moxaverine/g of moist tissue
Amount of active substance in the moist tissue [2, 13]: 2.3412E−09 mg of moxaverine/g of moist tissue and 1.8210E−09 mg of moxaverine/g of moist tissue
Amount of active substance in the moist tissue, Mean value [2, 14]: 2.2936E−05 mg of moxaverine/g of moist tissue
Amount of active substance in the moist tissue [2, 14]: 2.7539E−05 mg of moxaverine/g of moist tissue and 1.5261E−05 mg of moxaverine/g of moist tissue and 2.6009E−05 mg of moxaverine/g of moist tissue
Amount of active substance in the moist tissue, Mean value ([2]; systemic application (intravenous), after 120 minutes, Cornea): 7.6083E−06 mg of moxaverine/g of moist tissue
Amount of active substance in the moist tissue, Mean value [2, 15]: 1.5907E−04 mg of moxaverine/g of moist tissue
Amount of active substance in the moist tissue [2, 15]: 1.2211E−04 mg of moxaverine/g of moist tissue and 1.6708E−04 mg of moxaverine/g of moist tissue and 1.8802E−04 mg of moxaverine/g of moist tissue
Amount of active substance in the moist tissue, Mean value [2, 16]: 1.5477E−06 mg of moxaverine/g of moist tissue
Amount of active substance in the moist tissue [2, 16]: 1.3706E−06 mg of moxaverine/g of moist tissue and 2.0870E−06 mg of moxaverine/g of moist tissue and 1.1854E−06 mg of moxaverine/g of moist tissue
Amount of active substance in the moist tissue, Mean value [2, 17]: 2.2620E−05 mg of moxaverine/g of moist tissue
Amount of active substance in the moist tissue [2, 17]: 2.4420E−05 mg of moxaverine/g of moist tissue and 2.1190E−05 mg of moxaverine/g of moist tissue and 2.2250E−05 mg of moxaverine/g of moist tissue
Amount of active substance in the moist tissue, Mean value [2, 18]: 7.7330E−05 mg of moxaverine/g of moist tissue
Amount of active substance in the moist tissue [2, 18]: 9.5067E−05 mg of moxaverine/g of moist tissue and 8.3068E−05 mg of moxaverine/g of moist tissue and 5.3855E−05 mg of moxaverine/g of moist tissue
Amount of active substance in the moist tissue, Mean value [2, 19]: 1.3993E−05 mg of moxaverine/g of moist tissue
Amount of active substance in the moist tissue [2, 19]: 1.4230E−05 mg of moxaverine/g of moist tissue and 1.1476E−05 mg of moxaverine/g of moist tissue and 1.6272E−05 mg of moxaverine/g of moist tissue
Amount of active substance in the moist tissue, Mean value [2, 20]: 1.2851E−09 mg of moxaverine/g of moist tissue
Amount of active substance in the moist tissue [2, 20]: 1.5608E−09 mg of moxaverine/g of moist tissue and 9.6772E−10 mg of moxaverine/g of moist tissue and 1.3267E−09 mg of moxaverine/g of moist tissue
